Measured values published in US8232283B2, “Raf inhibitors” (Forma Therapeutics, Inc., priority 2008, dated 2012).
Read-outs that look alike come from different tables or passages of the source.

What was measured:
B-Raf = B-Raf (Homo sapiens, UniProt P15056); assay: SelectScreen Kinase Profiling Service (Invitrogen), IC50 with or without 5 h preincubation of kinase/test compound; assay type: biochemical
Description: (§1) d) B-Raf/B-Raf (V600E) (SelectScreen™ Assay)
(§2) Selected compound of the present invention were tested in the Select Screen™ Kinase Profiling Service (Invitrogen Corporation, Madison, Wis. 53719, USA) against B-Raf and the B-Raf (V600E) [“V599E” in terminology used by Invitrogen], under conditions of non-disclosure, non-dissemination and non-use.
(§3) In brief, compounds 11 and 39 (see Table 1) were tested at Invitrogen against B-Raf and the B-Raf (V600E), either with or without preincubation of kinase/test compound for 5 hours.

B-Raf (V600E) = B-Raf (V600E) (Homo sapiens, UniProt P15056, V600E); assay: as above; assay type: biochemical
Description: as §1, §2, §3

[1] = system: HT-29 [B-Raf V600E mutant]; assay: Anti-proliferative activity, SRB assay, 72 hours; assay type: cell-based; settings: Homo sapiens, read-out: CELLULAR IC50 [μM] HT-29 [B-Raf V600E mutant]
Summary of the method: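 HT-29 cells, plated 24 h before dosing, exposed to a concentration range of compound for 72 h. Proliferation measured by sulforhodamine B staining after TCA fixation, absorbance at 520 nm; % inhibition versus DMSO-treated cells used to estimate IC50.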

A-431 [B-Raf wildtype] = assay: Anti-proliferative activity, SRB assay, 72 hours; assay type: cell-based; settings: Homo sapiens, read-out: CELLULAR IC50 [μM] A-431 [B-Raf wildtype]
Summary of the method: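 Cells seeded 24 h before compound, then exposed to a concentration range for 72 h. TCA-fixed, stained with sulforhodamine B, bound dye solubilized in 10 mM Trizma and read at OD520. IC50 from % inhibition of proliferation vs DMSO-treated cells.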

C-Raf = biological target: T1, C-Raf (Homo sapiens, UniProt P04049); assay: Biochemical inhibition, standard selectivity panel (Proteros); parameters: dose or concentration left out as unconfirmed
T1 construct: purchased Proteros biostructures GmbH (selectivity panel service)
Description: (§4) For example, selected compound of the present invention were tested in a standard selectivity panel including c-Raf, p38, and 22 other kinases (Proteros biostructures GmbH, Martinsried/Munich, Germany), under conditions of non-disclosure, non-dissemination and non-use.
(§5) In brief, selected compounds of the present invention were tested […] in triplicates against c-Raf, p38 as well as against Ab1, Akt1, Aur A, c-Kit, c-Raf, Cdk1/CycB, Chk1, FGFR3, Flt3, Fyn, IGF1-R, INSR, Lyn, MAPK-ERK1, PAK-4, PKCalpha, Plk1, Ret, ROCK2, RSK 1, c-Src, TIE2, and VEGF-R2.

p38 = biological target: T2, p38 (Homo sapiens, UniProt Q16539); assay: as above; parameters: dose or concentration left out as unconfirmed
T2 construct: purchased Proteros biostructures GmbH (selectivity panel service)
Description: as §4, §5

[2] = 5 h preincubation of kinase/test compound, read-out: IC50 [nM] B-Raf 5 h preincub.
[3] = without preincubation of kinase/test compound, read-out: IC50 [nM] B-Raf w/o preincub.
[4] = 5 h preincubation of kinase/test compound, read-out: IC50 [nM] B-Raf (V600E) 5 h preincub.
[5] = without preincubation of kinase/test compound, read-out: IC50 [nM] B-Raf (V600E) w/o preincub.

Sequence of B-Raf (V600E) (P15056 whole entry V600E): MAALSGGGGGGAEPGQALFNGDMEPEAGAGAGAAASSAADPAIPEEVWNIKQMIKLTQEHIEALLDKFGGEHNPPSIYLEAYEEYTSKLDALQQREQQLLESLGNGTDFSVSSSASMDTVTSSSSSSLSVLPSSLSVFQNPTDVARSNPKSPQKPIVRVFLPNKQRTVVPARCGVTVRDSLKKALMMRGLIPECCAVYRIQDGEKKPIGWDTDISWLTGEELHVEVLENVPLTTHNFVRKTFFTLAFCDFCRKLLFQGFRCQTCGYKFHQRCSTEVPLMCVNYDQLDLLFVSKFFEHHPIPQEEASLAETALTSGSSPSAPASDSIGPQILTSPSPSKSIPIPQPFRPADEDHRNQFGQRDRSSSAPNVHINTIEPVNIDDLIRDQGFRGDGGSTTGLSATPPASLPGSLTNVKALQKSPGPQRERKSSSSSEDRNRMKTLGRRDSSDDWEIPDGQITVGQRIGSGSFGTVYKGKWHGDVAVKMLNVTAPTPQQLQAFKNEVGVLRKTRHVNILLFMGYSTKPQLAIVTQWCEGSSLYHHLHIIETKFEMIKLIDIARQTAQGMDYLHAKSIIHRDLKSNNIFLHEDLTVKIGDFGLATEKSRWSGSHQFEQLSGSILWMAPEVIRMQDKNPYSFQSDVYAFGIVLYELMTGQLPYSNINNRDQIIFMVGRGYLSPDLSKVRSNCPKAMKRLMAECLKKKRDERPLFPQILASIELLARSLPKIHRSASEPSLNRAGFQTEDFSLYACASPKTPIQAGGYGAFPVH
Sequence of B-Raf (P15056 whole entry): as the sequence (P15056 whole entry V600E) above, with E600V counted along it
T1 sequence (P04049 whole entry): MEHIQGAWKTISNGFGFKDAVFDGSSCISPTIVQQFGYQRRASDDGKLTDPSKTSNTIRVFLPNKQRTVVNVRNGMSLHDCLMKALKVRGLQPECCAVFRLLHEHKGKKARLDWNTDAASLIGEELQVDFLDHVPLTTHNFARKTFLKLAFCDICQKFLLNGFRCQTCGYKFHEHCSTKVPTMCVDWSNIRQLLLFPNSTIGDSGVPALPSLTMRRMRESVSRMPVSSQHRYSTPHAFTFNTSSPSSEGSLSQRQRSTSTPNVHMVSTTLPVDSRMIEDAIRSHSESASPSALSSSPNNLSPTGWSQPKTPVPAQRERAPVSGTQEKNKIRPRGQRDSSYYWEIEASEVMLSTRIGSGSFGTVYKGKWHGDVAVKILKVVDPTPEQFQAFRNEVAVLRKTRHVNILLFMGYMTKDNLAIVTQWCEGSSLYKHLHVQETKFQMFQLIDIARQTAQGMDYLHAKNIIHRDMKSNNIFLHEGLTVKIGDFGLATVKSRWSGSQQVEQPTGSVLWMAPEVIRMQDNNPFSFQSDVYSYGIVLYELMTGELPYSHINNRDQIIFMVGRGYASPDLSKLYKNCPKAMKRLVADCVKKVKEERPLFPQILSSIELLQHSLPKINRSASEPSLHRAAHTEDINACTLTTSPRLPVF
T2 sequence (Q16539 whole entry): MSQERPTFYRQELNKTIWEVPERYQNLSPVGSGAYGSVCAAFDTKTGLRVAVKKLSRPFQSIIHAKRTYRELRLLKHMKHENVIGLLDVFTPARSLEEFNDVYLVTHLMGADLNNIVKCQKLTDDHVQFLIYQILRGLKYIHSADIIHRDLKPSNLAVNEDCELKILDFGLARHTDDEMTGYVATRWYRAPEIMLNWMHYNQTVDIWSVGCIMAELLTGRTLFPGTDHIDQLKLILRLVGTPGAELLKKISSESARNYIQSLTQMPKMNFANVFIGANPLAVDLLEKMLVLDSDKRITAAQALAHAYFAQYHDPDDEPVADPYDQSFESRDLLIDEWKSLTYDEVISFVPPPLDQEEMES

IC50 (B-Raf; [2])	IC50 (B-Raf; [3])	IC50 (B-Raf (V600E); [4])	IC50 (B-Raf (V600E); [5])	IC50 [1]	IC50 (A-431 [B-Raf wildtype])	inhibition (C-Raf)	inhibition (p38)	SMILES
< 250 nM	< 250 nM	< 100 nM	< 100 nM	< 10 µM	> 10 µM			COn1c(=O)c(-c2cc(NC(=O)c3cc(C(C)(C)C)nn3C)ccc2Cl)cc2cnc(NCCN(C)C)nc21 [Compound 11, 5-tert-Butyl-2-methyl-2H-pyrazole-3-carboxylic acid {4-chloro-3-[2-(2-dimethylamino-ethylamino)-8-methoxy-7-oxo-7,8-dihydro-pyrido[2,3-d]pyrimidin-6-yl]-phenyl}-amide]
< 10 nM	< 10 nM	< 5 nM	< 5 nM	< 5 µM	> 10 µM	> 70%	> 70%	COn1c(=O)c(-c2cc(NC(=O)c3cccc(C(F)(F)F)c3F)ccc2Cl)cc2cnc(NCCN(C)C)nc21 [Compound 39, N-{4-Chloro-3-[2-(2-dimethylamino-ethylamino)-8-methoxy-7-oxo-7,8-dihydro-pyrido[2,3-d]pyrimidin-6-yl]-phenyl}-2-fluoro-3-trifluoromethyl-benzamide]
